A word on the IC50: it is the concentration at which inhibition is half-maximal.

Structures are written as SMILES. Where a name gives a salt, the structure may show the parent alone.

Results on four compounds are retold here after US6147073A, “Substituted tetralymethylen-Oxindoles analogues as tyrosine kinase inhibitors” (Pharmacia & Upjohn S.p.A., priority 1996, dated 2000).

For one assay, the system named is K562 cells. Put plainly: K562 Cell Growth Inhibition Assay. Type of assay: cell-based. Conditions: human myelogenous leukemia cell line, cell count after 72 h vs untreated control. The method, then:
K562 cells, a human myelogenous leukemia cell line, were seeded into a 24 wells tissue culture plate (Falcon 3047) (10000/well) in the presence of increasing concentrations of the compounds.
After 72 h, cells were harvested and were counted using a cell counter (Coulter Counter-ZM). The percent of inhibition was evaluated in respect to the untreated control cells.

Assay [1] addresses p45 v-abl tyrosine kinase. Nature of the assay: p45 v-abl Kinase Assay ((Val^5)-angiotensin II phosphorylation). Type of assay: biochemical, Abelson murine leukemia virus. As to conditions: purified abl-kinase 40 ng; peptide 2 mM, ATP 50 μM; pH 8.0, 30° C. The method, then:
The enzyme used in our tests is the p45 v-abl tyrosine kinase which represents the catalytic domain of the Abelson tyrosine kinase (isolated from the Abelson murine leukemia virus). The p45 v-abl kinase is produced and isolated as described by Wang et al. in J.Biol.Chem. 260, 64 (1985) and by Ferguson et al. in J.Biol.Chem. 260, 3652 (1985) and in Biochem.J. 257, 321 (1989).
(Val^5)-angiotensin II phosphorylation is performed by incubation with 40 ng of purified abl-kinase and (γ-^32 P) ATP, in 50 μl of buffer containing Tris-HCl 25 mM, pH 8.0, MgCl2 10 mM and dithiothreitol 0.1 mM (kinase buffer). The reaction mixture is incubated for the indicated time at 30° C. and the reaction stopped by adding 50 μl of 5% trichloracetic acid. After a brief incubation on ice the tubes are centrifuged. The supernatants are spotted on phosphocellulase paper squares (Whatman P-81) and washed extensively in acetic acid. The radioactivity bound to dried phosphocellulose squares is measured in a liquid scintillation counter. IC50 values are calculated from triplicated determination of each experimental point. Each inhibitor is tested at concentrations ranging from […] in the presence of fixed concentrations of peptide (2 mM) and ATP (50 μM).

With `CC(N)C(=O)NC(C)C(=O)Nc1ccc2c(c1)C(=Cc1cc(O)c3c(c1O)CCCC3)C(=O)N2` (centres unmarked) [5-(alanylalanylamino)-3-(1,4-dihydroxy-2-tetralylmethylen)-2-oxindole trifluoroacetate], the IC50 was found to be 5.3 µM in the assay on K562 cells (K562) and 3.12 µM in assay [1].

As for `CC(NC(=O)OC(C)(C)C)C(=O)Nc1ccc2c(c1)C(=Cc1cc(O)c3c(c1O)CCCC3)C(=O)N2` (centres unmarked) [5-(N-tert-butoxycarbonylalanylamino)-3-(1,4-dihydroxy-2-tetralylmethylen)-2-oxindole], the values for the IC50 (in the assay with K562 cells (K562); in assay [1]) were 5.86 µM and 1.56 µM, respectively.

As to `NC(CCC(=O)O)C(=O)Nc1ccc2c(c1)C(=Cc1cc(O)c3c(c1O)CCCC3)C(=O)N2` (centres unmarked) [5-(glutamylamino)-3-(1,4-dihydroxy-2-tetralylmethylen)-2-oxindole], the IC50 was 5.97 µM in the assay with K562 cells and 10 µM in assay [1].

Regarding `CC(N)C(=O)Nc1ccc2c(c1)C(=Cc1cc(O)c3c(c1O)CCCC3)C(=O)N2` (centres unmarked) [5-(alanylamino)-3-(1,4-dihydroxy-2-tetralylmethylen)-2-oxindole], the IC50 in the assay on K562 cells (K562) was 8.31 µM; in assay [1], 10 µM.
